Each structure is given as a SMILES string.

These results are taken from patent publication US20030224422A1, “Pre-and post therapy gene expression profiling to identify drug targets” (St. Jude Children's Research Hospital, Inc., priority 2002, published 2003).

The experiment has as its system bone marrow leukemic blasts obtained from children with ALL. In words: Oligonucleotide microarray (Affymetrix HG-U95A) fold-change in gene expression, post-treatment vs diagnosis, in patients in vivo. Also noted: species or system human. The note with it: for number of genes that were down-regulated after single agent / number of genes that were up-regulated (increased) after single agent: changed by >50% in over 70% of patients; for number of genes that changed expression by at least 50%: in over 70% of patients treated. As for the experimental part: To elucidate genomic determinants of leukemia response to chemotherapy, oligonucleotide microarrays (Affymetrix® HG-U95A GeneChip) were used to analyze expression of approximately 9,600 human genes in bone marrow leukemic blasts obtained from children with ALL, at diagnosis and one day post-treatment with mercaptopurine (1 gm/^2 IV) or methotrexate (MTX) given alone (1 gm/m^2 IV), or mercaptopurine (6-MP) in combination with either low-dose MTX [180 mg/m^2 orally] or high-dose MTX [[…]]). A stratified (immunophenotype, DNA ploidy) randomization was used to assign treatment, and the fold-change in gene expression (post-treatment to diagnosis) was computed for 60 patients. Using linear discriminate analysis with variance (LDAV) genes that most discriminated among treatments were selected based on expression changes (fold-change from diagnosis to post-treatment) or based on post-treatment expression levels alone. […] Leave-one-out cross-validation using support-vector-machine (SVM), based on the 120 most discriminating genes, correctly classified 60 out of 60 patients (100%) based on fold-change versus 58 out of 60 (96.7%) using only post-treatment expression profiles. The smallest number of genes for discrimination among treatments was 120 using fold-change, which included genes involved in cellular processes such as apoptosis, cell cycle control and stress response. Together, these in vivo data reveal unique, treatment-specific changes in gene expression in primary leukemia cells, establishing that changes in expression differ according to the specific medication, dosage and combination given. These findings provide new insights to cancer cell responses to chemotherapy and can be used to illuminate mechanisms of leukemia resistance and identify novel targets to augment existing treatment modalities.
Primary leukemia cells. This study included 60 patients with ALL enrolled on St. Jude Children's Research Hospital Total Therapy Studies XIIIB and XV. Bone marrow samples were obtained at diagnosis (pre-treatment) and one day post-treatment with mercaptopurine (6-MP) or methotrexate (MTX) given alone, or mercaptopurine in combination with either low-dose MTX (LDMTX/6-MP) or high-dose MTX (HDMTX/6-MP). A stratified (immunophenotype, DNA ploidy) randomization was used to assign treatment. Total RNA was extracted from cryopreserved mononuclear cell suspensions with TriReagent (MRC, Cincinnati, Ohio).
Mircoarray analysis. High quality RNA was hybridized to Affymetrix HG-U95A GeneChipe (12,600 probe sets, ˜9,600 human genes) according to the manufacturers protocol (Affymetrix, Santa Clara, Calif.). Scaled gene expression values for pre-treatment, post-treatment and fold-change (post-treatment vs. pre-treatment ratio) were calculated using Affymetrix Microarray Suite® (MAS) 5.0.
Gene expression data analysis. Analysis was done on fold-change and on post-treatment expression. The data were log-transformed and probe sets were filtered out if “absent” in all 120 arrays or if “no change” in all 60 fold-change ratios. Principal component analysis (PCA) and 2D-hierarchical clustering was performed using GeneMath 1.5 (AppliedMaths, Belgium). We applied supervised methods to find the most discriminating genes, including Linear Discriminant Analysis with Variance (LDAV) (GeneMaths) and ANOVA. Probe sets were ranked according to their discriminating power. To establish that these genes could classify treatments and to find significant genes, leave-one-out cross-validation was performed by support vector machine (SVM) with the top ranked probe sets. […] The p-value is defined as the probability of observing a misclassification rate less or equal to that in the experimental data. 250 permutations were performed. To distinguish one treatment from the other treatments, distinction calculation (Spotfire 6.3, Somerville, Mass.) was performed for each probe set. Permutations (n=1000) were performed to obtain the p-values. […]

As for `CN(Cc1cnc2nc(N)nc(N)c2n1)c1ccc(C(=O)N[C@@H](CCC(=O)O)C(=O)O)cc1` [HDMTX, Methotrexate], the “number of genes that were down-regulated after single agent” value was 59 genes, the “number of genes that were up-regulated (increased) after single agent” value came to 38 genes and the “number of genes that changed expression by at least 50%” value is given as 97 genes. Further, the “difference in gene expression between infusion for 24 h and infusion for 4 h” value (HDMTX 24 h vs 4 h infusion, data pooled) is reported as “No difference”.

`S=c1nc[nH]c2nc[nH]c12` [MP, Mercaptopurine]: the “number of genes that were down-regulated after single agent” value is listed as 40 genes, the “number of genes that were up-regulated (increased) after single agent” value stood at 158 genes and the “number of genes that changed expression by at least 50%” value turned out to be 197 genes.
